pEC50: −log10 of the molar value. Read-outs that look alike come from different tables or passages of the source. Starred links: 1 amine or outer side, 2 acyl side, 3 side chain; linkers in the order of their positions; H or OH if unused. Non-standard residues stand in square brackets, D forms with d. Residues, ends and D or L forms follow the SMILES beside them. Groups on a side chain read outwards from the residue. *: point of attachment. C20 diacid = O=C(O)CCCCCCCCCCCCCCCCCCC(=O)*; C18 diacid = O=C(O)CCCCCCCCCCCCCCCCC(=O)*; γGlu = O=C(O)[C@H](CCC(=O)[*:2])N[*:1]; αMeF = C[C@](N)(Cc1ccccc1)C(=O)O; AEEA = NCCOCCOCC(=O)O; Aib = CC(C)(N)C(=O)O
Assays:
[1] = target: human glucagon receptor (hGCGR) (Homo sapiens, UniProt P47871); assay: cAMP production (HTRF) in CHO cells expressing hGCGR; type: cell-based; design: expressed in transfected cells; details: cAMP, CHO cells, 0.1% BSA, geometric mean; for pEC50: read-out: hGluc-R EC50
Chain of human glucagon receptor (hGCGR) (P47871 26-477): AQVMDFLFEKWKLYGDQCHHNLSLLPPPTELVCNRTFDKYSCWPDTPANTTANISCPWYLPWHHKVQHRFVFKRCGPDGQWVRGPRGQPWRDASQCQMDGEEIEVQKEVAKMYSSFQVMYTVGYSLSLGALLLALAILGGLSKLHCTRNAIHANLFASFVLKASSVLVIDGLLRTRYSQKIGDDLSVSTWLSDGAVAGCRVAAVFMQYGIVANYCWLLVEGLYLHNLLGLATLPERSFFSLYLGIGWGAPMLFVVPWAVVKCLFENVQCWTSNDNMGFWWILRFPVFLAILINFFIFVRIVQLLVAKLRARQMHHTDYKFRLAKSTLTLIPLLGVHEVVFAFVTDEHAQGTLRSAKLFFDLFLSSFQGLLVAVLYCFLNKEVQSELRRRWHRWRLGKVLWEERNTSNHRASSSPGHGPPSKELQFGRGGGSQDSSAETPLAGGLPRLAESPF
In short: (§1)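 Potency values represent EC50 from 4-parameter logistic curves of HTRF % Delta F signal. Receptor-expressing CHO cells (hGCGR 2×10^5 cells/mL, hGLP-1R 1×10^5 cells/mL) were exposed for 30 min at room temperature before two-step cAMP detection.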

[2] = target: human GLP-1 receptor (hGLP-1R) (Homo sapiens, UniProt P43220); assay: cAMP production (HTRF) in CHO cells expressing hGLP-1R; type: cell-based; design: expressed in transfected cells; details: for pEC50: cAMP, CHO cells, 0.1% BSA, geometric mean, read-out: hGLP-1R EC50
Chain of human GLP-1 receptor (hGLP-1R) (P43220 24-463): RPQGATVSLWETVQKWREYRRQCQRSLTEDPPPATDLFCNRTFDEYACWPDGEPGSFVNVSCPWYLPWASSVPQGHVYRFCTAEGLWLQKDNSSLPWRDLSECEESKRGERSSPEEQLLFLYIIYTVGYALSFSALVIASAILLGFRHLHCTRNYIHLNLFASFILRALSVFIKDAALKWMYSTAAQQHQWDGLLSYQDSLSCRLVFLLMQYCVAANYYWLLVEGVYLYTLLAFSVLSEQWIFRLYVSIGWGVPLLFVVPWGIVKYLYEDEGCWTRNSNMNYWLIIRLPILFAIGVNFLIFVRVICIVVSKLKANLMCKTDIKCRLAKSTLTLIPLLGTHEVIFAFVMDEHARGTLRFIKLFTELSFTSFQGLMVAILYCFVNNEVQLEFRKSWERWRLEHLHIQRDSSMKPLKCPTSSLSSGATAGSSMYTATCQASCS
In short: as §1

[3] = % GLP-1R activity relative to GLP-1 / % GlucR activity relative to glucagon

pEC50 [1] | % Relative Potency Ratio [2, 3] | pEC50 [2] | SMILES | EC50 ([1]; hGluc-R EC50 (pM)) [pM] | % Relative Potency Ratio [2]
8.30 | 216.6 | 10.34 | CC[C@H](C)[C@H](NC(=O)[C@H](Cc1c[nH]c2ccccc12)NC(=O)[C@H](CCCCNC(=O)COCCOCCNC(=O)COCCOCCNC(=O)CC[C@H](NC(=O)CCCCCCCCCCCCCCCCC(=O)O)C(=O)O)NC(=O)[C@@H](NC(=O)[C@H](Cc1ccccc1)NC(=O)[C@H](CC(=O)O)NC(=O)[C@H](CCC(N)=O)NC(=O)[C@H](C)NC(=O)[C@H](C)NC(=O)[C@H](CCCNC(=N)N)NC(=O)[C@H](CO)NC(=O)[C@H](CC(=O)O)NC(=O)[C@H](CC(C)C)NC(=O)[C@](C)(Cc1ccccc1)NC(=O)[C@H](CCCCN)NC(=O)[C@H](CO)NC(=O)[C@@H](NC(=O)[C@H](CC(=O)O)NC(=O)[C@H](CO)NC(=O)[C@@H](NC(=O)[C@](C)(Cc1ccccc1)NC(=O)[C@H](CO)NC(=O)CNC(=O)[C@@H](NC(=O)C(C)(C)NC(=O)[C@@H](N)Cc1c[nH]cn1)[C@@H](C)CC)[C@@H](C)O)C(C)C)C(C)C)C(=O)N[C@@H](C)C(=O)N[C@@H](CC(N)=O)C(=O)N[C@H](C(N)=O)[C@@H](C)O [Peptide 359] (H-H[Aib]IGS[αMeF]TSDVSK[αMeF]LDSRAAQDFVK([AEEA-AEEA-γGlu-C18 diacid])WIANT-NH2) |  | 
8.25 | 103.5 | 9.97 | CC[C@H](C)[C@H](NC(=O)[C@H](Cc1c[nH]c2ccccc12)NC(=O)[C@H](CCCCNC(=O)COCCOCCNC(=O)COCCOCCNC(=O)CC[C@H](NC(=O)CCCCCCCCCCCCCCCCCCC(=O)O)C(=O)O)NC(=O)[C@@H](NC(=O)[C@H](Cc1ccccc1)NC(=O)[C@H](CC(=O)O)NC(=O)[C@H](CCC(N)=O)NC(=O)[C@H](C)NC(=O)[C@H](C)NC(=O)[C@H](CCCNC(=N)N)NC(=O)[C@H](CO)NC(=O)[C@H](CC(=O)O)NC(=O)[C@H](CC(C)C)NC(=O)[C@](C)(Cc1ccccc1)NC(=O)[C@H](CCCCN)NC(=O)[C@H](CO)NC(=O)[C@@H](NC(=O)[C@H](CC(=O)O)NC(=O)[C@H](CO)NC(=O)[C@@H](NC(=O)[C@](C)(Cc1ccccc1)NC(=O)[C@H](CO)NC(=O)CNC(=O)[C@@H](NC(=O)C(C)(C)NC(=O)[C@@H](N)Cc1c[nH]cn1)[C@@H](C)CC)[C@@H](C)O)C(C)C)C(C)C)C(=O)N[C@@H](C)C(=O)N[C@@H](CC(N)=O)C(=O)N[C@H](C(N)=O)[C@@H](C)O [Peptide 360] (H-H[Aib]IGS[αMeF]TSDVSK[αMeF]LDSRAAQDFVK([AEEA-AEEA-γGlu-C20 diacid])WIANT-NH2; N-terminus assumed) |  | 
10.37 | 1.5 | 10.26 | CC[C@H](C)[C@H](NC(=O)[C@H](Cc1c[nH]c2ccccc12)NC(=O)[C@H](CCCCNC(=O)COCCOCCNC(=O)COCCOCCNC(=O)CC[C@H](NC(=O)CC[C@H](NC(=O)CCCCCCCCCCCCCCCCC(=O)O)C(=O)O)C(=O)O)NC(=O)[C@@H](NC(=O)[C@H](Cc1ccccc1)NC(=O)[C@H](CC(=O)O)NC(=O)[C@H](CCC(N)=O)NC(=O)[C@H](C)NC(=O)[C@H](C)NC(=O)[C@H](CCCNC(=N)N)NC(=O)[C@H](CO)NC(=O)[C@H](CC(=O)O)NC(=O)[C@H](CC(C)C)NC(=O)[C@](C)(Cc1ccccc1)NC(=O)[C@H](CCCCN)NC(=O)[C@H](CO)NC(=O)[C@@H](NC(=O)[C@H](CC(=O)O)NC(=O)[C@H](CO)NC(=O)[C@@H](NC(=O)[C@](C)(Cc1ccccc1)NC(=O)[C@H](CO)NC(=O)CNC(=O)[C@H](Cc1c[nH]cn1)NC(=O)C(C)(C)NC(=O)[C@@H](N)Cc1c[nH]cn1)[C@@H](C)O)C(C)C)C(C)C)C(=O)N[C@@H](C)C(=O)N[C@@H](CC(N)=O)C(=O)N[C@H](C(N)=O)[C@@H](C)O [Peptide 362] (H-H[Aib]HGS[αMeF]TSDVSK[αMeF]LDSRAAQDFVK([AEEA-AEEA-γGlu-γGlu-C18 diacid])WIANT-NH2; N-terminus assumed) |  | 
10.32 | 5.1 | 10.74 | CC[C@H](C)[C@H](NC(=O)[C@H](Cc1c[nH]c2ccccc12)NC(=O)[C@H](CCCCNC(=O)COCCOCCNC(=O)COCCOCCNC(=O)CC[C@H](NC(=O)CC[C@H](NC(=O)CCCCCCCCCCCCCCCCC(=O)O)C(=O)O)C(=O)O)NC(=O)[C@@H](NC(=O)[C@H](Cc1ccccc1)NC(=O)[C@H](CC(=O)O)NC(=O)[C@H](CCC(N)=O)NC(=O)[C@H](C)NC(=O)[C@H](C)NC(=O)[C@H](CCCNC(=N)N)NC(=O)[C@H](CO)NC(=O)[C@H](CC(=O)O)NC(=O)[C@H](CC(C)C)NC(=O)[C@](C)(Cc1ccccc1)NC(=O)[C@H](CCCCN)NC(=O)[C@H](CO)NC(=O)[C@@H](NC(=O)[C@H](CC(=O)O)NC(=O)[C@H](CO)NC(=O)[C@@H](NC(=O)[C@](C)(Cc1ccccc1)NC(=O)[C@H](CO)NC(=O)CNC(=O)[C@H](Cc1c[nH]cn1)NC(=O)C(C)(C)NC(=O)[C@@H](N)Cc1c[nH]cn1)[C@@H](C)O)C(C)C)C(C)C)C(=O)N[C@@H](C)C(=O)N[C@@H](CC(N)=O)C(=O)N[C@H](C(=O)NCC(N)=O)[C@@H](C)O [Peptide 363] (H-H[Aib]HGS[αMeF]TSDVSK[αMeF]LDSRAAQDFVK([AEEA-AEEA-γGlu-γGlu-C18 diacid])WIANTG-NH2; N-terminus assumed) |  | 
9.54 | 3.1 | 9.73 | CC[C@H](C)[C@H](NC(=O)[C@H](Cc1c[nH]c2ccccc12)NC(=O)[C@H](CCCCNC(=O)COCCOCCNC(=O)COCCOCCNC(=O)CC[C@H](NC(=O)CCCCCCCCCCCCCCCCCCC(=O)O)C(=O)O)NC(=O)[C@@H](NC(=O)[C@H](Cc1ccccc1)NC(=O)[C@H](CC(=O)O)NC(=O)[C@H](CCC(N)=O)NC(=O)[C@H](C)NC(=O)C(C)(C)NC(=O)[C@H](CCCNC(=N)N)NC(=O)[C@H](CO)NC(=O)[C@H](CC(=O)O)NC(=O)[C@H](CC(C)C)NC(=O)[C@](C)(Cc1ccccc1)NC(=O)[C@H](CCCCN)NC(=O)[C@H](CO)NC(=O)[C@@H](NC(=O)[C@H](CC(=O)O)NC(=O)[C@H](CO)NC(=O)[C@@H](NC(=O)[C@](C)(Cc1ccccc1)NC(=O)[C@H](CO)NC(=O)CNC(=O)[C@H](Cc1c[nH]cn1)NC(=O)C(C)(C)NC(=O)[C@@H](N)Cc1c[nH]cn1)[C@@H](C)O)C(C)C)C(C)C)C(=O)N[C@@H](C)C(=O)N[C@@H](CC(N)=O)C(=O)N[C@H](C(N)=O)[C@@H](C)O [Peptide 368, H(Aib)HGS(αMePhe)TSDVSK(αMePhe)LDSR(Aib)AQDFVK(O2OC-O2OC-γE-C20diacid)24WIANT-amide] (H-H[Aib]HGS[αMeF]TSDVSK[αMeF]LDSR[Aib]AQDFVK([AEEA-AEEA-γGlu-C20 diacid])WIANT-NH2) |  | 
9.70 | 3.8 | 9.98 | CC[C@H](C)[C@H](NC(=O)C(C)(C)NC(=O)[C@H](CCCCNC(=O)COCCOCCNC(=O)COCCOCCNC(=O)CC[C@H](NC(=O)CCCCCCCCCCCCCCCCCCC(=O)O)C(=O)O)NC(=O)[C@@H](NC(=O)[C@H](Cc1ccccc1)NC(=O)[C@H](CC(=O)O)NC(=O)[C@H](CCC(N)=O)NC(=O)[C@H](C)NC(=O)[C@H](C)NC(=O)[C@H](CCCNC(=N)N)NC(=O)[C@H](CO)NC(=O)[C@H](CC(=O)O)NC(=O)[C@H](CC(C)C)NC(=O)[C@](C)(Cc1ccccc1)NC(=O)[C@H](CCCCN)NC(=O)[C@H](CO)NC(=O)[C@@H](NC(=O)[C@H](CC(=O)O)NC(=O)[C@H](CO)NC(=O)[C@@H](NC(=O)[C@](C)(Cc1ccccc1)NC(=O)[C@H](CO)NC(=O)CNC(=O)[C@H](Cc1c[nH]cn1)NC(=O)C(C)(C)NC(=O)[C@@H](N)Cc1c[nH]cn1)[C@@H](C)O)C(C)C)C(C)C)C(=O)N[C@@H](C)C(=O)N[C@@H](CC(N)=O)C(=O)N[C@H](C(N)=O)[C@@H](C)O [Peptide 369] (H-H[Aib]HGS[αMeF]TSDVSK[αMeF]LDSRAAQDFVK([AEEA-AEEA-γGlu-C20 diacid])[Aib]IANT-NH2; N-terminus assumed) |  | 

SMILES | pEC50 [1] | % Relative Potency Ratio [2, 3] | pEC50 [2] | EC50 ([1]; hGluc-R EC50 (pM)) [pM] | % Relative Potency Ratio [2]
CC[C@H](C)[C@H](NC(=O)[C@H](Cc1c[nH]c2ccccc12)NC(=O)[C@H](CCCCNC(=O)COCCOCCNC(=O)COCCOCCNC(=O)CC[C@H](NC(=O)CCCCCCCCCCCCCCCCC(=O)O)C(=O)O)NC(=O)[C@@H](NC(=O)[C@H](Cc1ccccc1)NC(=O)[C@H](CC(=O)O)NC(=O)[C@H](CCC(N)=O)NC(=O)[C@H](C)NC(=O)C(C)(C)NC(=O)[C@H](CCCNC(=N)N)NC(=O)[C@H](CO)NC(=O)[C@H](CC(=O)O)NC(=O)[C@H](CC(C)C)NC(=O)[C@](C)(Cc1ccccc1)NC(=O)[C@H](CCCCN)NC(=O)[C@H](CO)NC(=O)[C@@H](NC(=O)[C@H](CC(=O)O)NC(=O)[C@H](CO)NC(=O)[C@@H](NC(=O)[C@](C)(Cc1ccccc1)NC(=O)[C@H](CO)NC(=O)CNC(=O)[C@H](Cc1c[nH]cn1)NC(=O)C(C)(C)NC(=O)[C@@H](N)Cc1c[nH]cn1)[C@@H](C)O)C(C)C)C(C)C)C(=O)N[C@@H](C)C(=O)N[C@@H](CC(N)=O)C(=O)N[C@H](C(N)=O)[C@@H](C)O [Peptide 365, H(Aib)HGS(αMePhe)TSDVSK(αMePhe)LDSR(Aib)AQDFVK(O2Oc-O2Oc-γE-C18diacid)24WIANT-amide] (H-H[Aib]HGS[αMeF]TSDVSK[αMeF]LDSR[Aib]AQDFVK([AEEA-AEEA-γGlu-C18 diacid])WIANT-NH2; N-terminus assumed) |  |  | 10.29 | 8.77 | 0.3
